Experimental data as given in patent EP0674651B1, “SUBSTITUTED 6-AZAANDROSTENONES” (priority 1992, dated 1994).
Like-named read-outs stand apart in the source and are kept apart here.

Experiments:
[1] = target: T1, human type 2 5α-reductase (Homo sapiens, UniProt P31213); assay: 5α-reductase in vitro inhibitory activity, human type 2
T1 sequence (P31213 1-254): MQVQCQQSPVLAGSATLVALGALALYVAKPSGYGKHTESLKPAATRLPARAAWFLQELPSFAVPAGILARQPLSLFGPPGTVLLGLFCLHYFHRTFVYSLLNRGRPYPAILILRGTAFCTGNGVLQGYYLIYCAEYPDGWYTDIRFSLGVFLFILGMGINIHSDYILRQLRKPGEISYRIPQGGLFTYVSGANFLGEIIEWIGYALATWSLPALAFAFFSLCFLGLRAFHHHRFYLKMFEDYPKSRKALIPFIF

[2] = target: T2, human type 1 5α-reductase (Homo sapiens, UniProt P18405); assay: 5α-reductase in vitro inhibitory activity, human type 1
T2 sequence (P18405 1-259): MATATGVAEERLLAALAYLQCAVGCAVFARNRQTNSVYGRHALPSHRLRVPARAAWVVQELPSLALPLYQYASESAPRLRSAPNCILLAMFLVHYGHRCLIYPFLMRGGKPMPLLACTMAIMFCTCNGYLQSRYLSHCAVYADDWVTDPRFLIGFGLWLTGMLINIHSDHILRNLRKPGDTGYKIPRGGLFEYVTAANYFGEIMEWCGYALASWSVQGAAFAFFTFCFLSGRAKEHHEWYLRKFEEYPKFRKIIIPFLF

[3] = target: Rat Prostatic 5α-reductase; assay: 5α-reductase in vitro inhibitory activity, rat prostatic; conditions: read-out: IC50 Rat Prostatic; microsomes derived from prostate tissue from the rat
Procedure: Microsomes were prepared by homogenization of the tissue or cells, followed by differential centrifugation of the homogenate. […] Corresponding incubations were carried out with no test compound as a control study.
The percentage of conversion of testosterone to DHT in the presence of test compounds compared to the corresponding conversion in the control study was estimated using high pressure liquid chromatography (HPLC) with radiochemical detection.

[4] = read-out: IC50 Human Type 2, microsomes, preincubated 20 minutes at pH 6.0, 8nM testosterone, 1 mM NADPH
[5] = read-out: IC50 Human Type 1, microsomes of recombinant baculovirus infected SF9 cells, preincubated 10 minutes at pH 7.0, 100nM testosterone, 1 mM NADPH

Compound | IC50 [1, 4] | IC50 [2, 5] | IC50 [3] | IC50 [1] | IC50 [2]
17β-N-2-(3-N-Methylpyrrole)ethyl-carbamoyl-6-azaandrost-4-en-3-one [Compound 29] | 10 to 100 nM | > 100 nM | 10 to 100 nM | – | –
17β-N-(2-t-Butyl-5-(N-methyl)methylsulfonamide)phenyl-6-azaandrost-4-en-3-one [Compound 91] | < 10 nM | 10 to 100 nM | 10 to 100 nM | – | –
C[C@]12CC[C@H]3[C@@H](CNC4=CC(=O)CC[C@@]43C)[C@@H]1CC[C@@H]2C(=O)NC1c2ccccc2-c2ccccc21 [Compound 1, 17β-N-9-Fluorenyl-carbamoyl-6-azaandrost-4-en-3-one] | – | – | 10 to 100 nM | < 10 nM | > 100 nM
C[C@]12CC[C@H]3[C@@H](CNC4=CC(=O)CC[C@@]43C)[C@@H]1CC[C@@H]2C(=O)CC1CCCCC1 [Compound 2, 17β-(1-Oxo-2-cyclohexylethyl)-6-azaandrost-4-en-3-one] | – | – | < 10 nM | < 10 nM | < 10 nM
CC(C)(C)C(=O)OCC1CCC2C3CNC4=CC(=O)CCC4(C)C3CCC12C (stereo not drawn) [Compound 3, 17β-Hydroxymethyl-(trimethylacetate)-6-azaandrost-4-en-3-one] | – | – | < 10 nM | 10 to 100 nM | 10 to 100 nM
C[C@]12CC[C@H]3[C@@H](CNC4=CC(=O)CC[C@@]43C)[C@@H]1CC[C@@H]2C(=O)Nc1ccc2c(c1)CCC2 [Compound 4, 17β-N-5-Indanylcarbamoyl-6-azaandrost-4-en-3-one] | – | – | > 100 nM | < 10 nM | > 100 nM
CC12CCC(=O)C=C1NCC1C2CCC2(C)C(C(=O)Nc3ccc(N4CCOCC4)cc3)CCC12 (stereo not drawn) [Compound 5, 17β-N-Phenyl-(4-morpholino)-carbamoyl-6-azaandrost-4-en-3-one] | – | – | 10 to 100 nM | 10 to 100 nM | > 100 nM
C[C@]12CC[C@H]3[C@@H](CNC4=CC(=O)CC[C@@]43C)[C@@H]1CC[C@@H]2C(=O)Nc1ccc2c(c1)OCCO2 [Compound 6, 17β-N-4-Benzodioxan-carbamoyl-6-azaandrost-4-en-3-one] | 10 to 100 nM | > 100 nM | 10 to 100 nM | – | –
CC12CCC(=O)C=C1NCC1C2CCC2(C)C(C(=O)Nc3ccc4c(c3)OCO4)CCC12 (stereo not drawn) [Compound 7, 17β-N-(3,4-Methylenedioxy)phenyl-carbamoyl-6-azaandrost-4-en-3-one] | – | – | 10 to 100 nM | < 10 nM | > 100 nM
CC12CCC(=O)C=C1NCC1C2CCC2(C)C(C(=O)Nc3ccccc3C(F)(F)F)CCC12 (stereo not drawn) [Compound 9, 17β-N-(2-Trifluoromethyl)phenyl-carbamoyl-6-azaandrost-4-en-3-one] | – | – | < 10 nM | < 10 nM | 10 to 100 nM
CC(C)(C)c1ccc(C(C)(C)C)c(NC(=O)C2CCC3C4CNC5=CC(=O)CCC5(C)C4CCC23C)c1 (stereo not drawn) [Compound 10, 17β-N-(2,5-Di-t-butyl)phenyl-carbamoyl-6-azaandrost-4-en-3-one] | – | – | 10 to 100 nM | < 10 nM | < 10 nM
CC12CCC(=O)C=C1NCC1C2CCC2(C)C(C(=O)NC(c3ccccc3)c3ccc(Cl)cc3)CCC12 (stereo not drawn) [Compound 11, 17β-N-(4-Chlorophenyl)(phenyl)methyl-carbamoyl-6-azaandrost-4-en-3-one] | – | – | < 10 nM | < 10 nM | 10 to 100 nM
Cc1ccc(CCNC(=O)C2CCC3C4CNC5=CC(=O)CCC5(C)C4CCC23C)cc1 (stereo not drawn) [Compound 12, 17β-N-(4-Methyl)phenethyl-carbamoyl-6-azaandrost-4-en-3-one] | – | – | < 10 nM | < 10 nM | 10 to 100 nM
CC(Cc1ccccc1)NC(=O)C1CCC2C3CNC4=CC(=O)CCC4(C)C3CCC12C (stereo not drawn) [Compound 13, 17β-N-(α-Methyl)phenethyl-carbamoyl-6-azaandrost-4-en-3-one] | – | – | < 10 nM | < 10 nM | 10 to 100 nM
CC(C)c1cccc(C(C)C)c1NC(=O)[C@H]1CC[C@H]2[C@@H]3CNC4=CC(=O)CC[C@]4(C)[C@H]3CC[C@]12C [Compound 14, 17β-N-(2,6-Di-i-propyl)phenyl-carbamoyl-6-azaandrost-4-en-3-one] | – | – | < 10 nM | < 10 nM | 10 to 100 nM
C[C@]12CC[C@H]3[C@@H](CNC4=CC(=O)CC[C@@]43C)[C@@H]1CC[C@@H]2C(=O)Nc1cccc2c1Cc1ccccc1-2 [Compound 15, 17β-N-1-Fluorenyl-carbamoyl-6-azaandrost-4-en-3-one] | – | – | < 10 nM | < 10 nM | > 100 nM
C[C@]12CC[C@H]3[C@@H](CNC4=CC(=O)CC[C@@]43C)[C@@H]1CC[C@@H]2C(=O)NCCC(c1ccccc1)c1ccccc1 [Compound 16, 17β-N-(3,3-Diphenyl)propyl-carbamoyl-6-azaandrost-4-en-3-one] | – | – | < 10 nM | < 10 nM | 10 to 100 nM
C[C@]12CC[C@H]3[C@@H](CNC4=CC(=O)CC[C@@]43C)[C@@H]1CC[C@@H]2C(=O)NC(Cc1ccccc1)c1ccccc1 (stereo partly drawn) [Compound 17, 17β-N-(α-Phenyl)phenethyl-carbamoyl-6-azaandrost-4-en-3-one] | – | – | < 10 nM | < 10 nM | 10 to 100 nM
C[C@]12CC[C@H]3[C@@H](CNC4=CC(=O)CC[C@@]43C)[C@@H]1CC[C@@H]2C(=O)NC(c1ccc(F)cc1)c1cccs1 (stereo partly drawn) [Compound 18, 17β-N-(4-Fluorophenyl)(2-thiophene)methyl-carbamoyl-6-azaandrost-4-en-3-one] | – | – | < 10 nM | < 10 nM | 10 to 100 nM
CC(C)(C)NC(=O)c1ccc(C(F)(F)F)cc1NC(=O)[C@H]1CC[C@H]2[C@@H]3CNC4=CC(=O)CC[C@]4(C)[C@H]3CC[C@]12C [Compound 142, 17β-N-(2-t-Butylcarbamoyl-5-trifluoromethyl)phenyl-carbamoyl-6-azaandrost-4-en-3-one] | – | – | – | < 10 nM | > 100 nM
CC(C)(C)c1ccc(C2(NC(=O)[C@H]3CC[C@H]4[C@@H]5CNC6=CC(=O)CC[C@]6(C)[C@H]5CC[C@]34C)CCSCC2)cc1 [Compound 143, 17β-N-4-(4-t-Butylphenyl)tetrahydrothiopyranyl-carbamoyl-6-azaandrost-4-en-3-one] | – | – | – | < 10 nM | < 10 nM
CC(C)(C)c1ccc(C2(NC(=O)[C@H]3CC[C@H]4[C@@H]5CNC6=CC(=O)CC[C@]6(C)[C@H]5CC[C@]34C)C3CCCC2CCC3)cc1 (stereo partly drawn) [Compound 144, 17β-N-9-(4-t-Butylphenyl)bicyclo[3.3.1]nonyl-carbamoyl-6-azaandrost-4-en-3-one] | – | – | – | < 10 nM | < 10 nM
CC(C)(C)c1ccc(C2(NC(=O)[C@H]3CC[C@H]4[C@@H]5CNC6=CC(=O)CC[C@]6(C)[C@H]5CC[C@]34C)CCOCC2)cc1 [Compound 145, 17β-N-4-(4-t-Butylphenyl)tetrahydropyranyl-carbamoyl-6-azaandrost-4-en-3-one] | – | – | – | < 10 nM | < 10 nM
C[C@]12CC[C@H]3[C@@H](CNC4=CC(=O)CC[C@@]43C)[C@@H]1CC[C@@H]2C(=O)NC1(c2ccc(Cl)cc2)CCCCC1 [Compound 146, 17β-N-1-(4-Chlorophenyl)cyclohexyl-carbamoyl-6-azaandrost-4-en-3-one] | – | – | – | < 10 nM | < 10 nM
CC(C)(C)c1ccc(-c2ccc(C(C)(C)C)c(NC(=O)[C@H]3CC[C@H]4[C@@H]5CNC6=CC(=O)CC[C@]6(C)[C@H]5CC[C@]34C)c2)cc1 [Compound 147, 17β-N-(2-t-Butyl-5-(4-t-butyl)phenyl)phenyl-carbamoyl-6-azaandrost-4-en-3-one] | – | – | – | < 10 nM | < 10 nM
